Reference: the NIST ThermoML archive (doi:10.1021/je100615j)
Numbers after ± are expanded uncertainties.

Assay: mn = molality of the nth substance listed, in mol/kg
Conditions: 101.3 kPa, Liquid, Vibrating tube method

O=[N+]([O-])[O-].O=[N+]([O-])[O-].O=[N+]([O-])[O-].[Ce+3] [cerium nitrate] + O
mass density [kg/m3]
Conditions | m1 = 0.5112 | m1 = 1.031 | m1 = 1.555 | m1 = 1.997 | m1 = 3.131 | m1 = 3.968 | m1 = 4.462
293.15 K | 1131.2 ± 0.8 | 1252.8 ± 1.5 | 1361.9 ± 2.3 | 1446.2 ± 3.1 | 1633.2 ± 5.4 | 1746.4 ± 7.1 | 1806 ± 8.1
298.15 K | 1129.3 ± 0.8 | 1250.2 ± 1.5 | 1358.8 ± 2.3 | 1443.1 ± 3.1 | 1629.1 ± 5.4 | 1742.4 ± 7.1 | 1801.8 ± 8.1
308.15 K | 1124.7 ± 0.7 | 1244.4 ± 1.5 | 1352 ± 2.3 | 1435.7 ± 3.1 | 1620.5 ± 5.3 | 1733.1 ± 7 | 1792.2 ± 8

O=[N+]([O-])[O-].O=[N+]([O-])[O-].O=[N+]([O-])[O-].[Nd+3] [neodymium(III) nitrate] + O
mass density [kg/m3]
Conditions | m1 = 0.522 | m1 = 1.021 | m1 = 1.555 | m1 = 2.093 | m1 = 3.086 | m1 = 4.124 | m1 = 4.297
293.15 K | 1136.1 ± 0.8 | 1255.1 ± 1.5 | 1369.8 ± 2.4 | 1474.7 ± 3.4 | 1642.1 ± 5.4 | 1785.9 ± 7.6 | 1807 ± 8
298.15 K | 1134.2 ± 0.8 | 1252.5 ± 1.5 | 1366.7 ± 2.4 | 1471.1 ± 3.4 | 1637.8 ± 5.4 | 1781.1 ± 7.6 | 1802.7 ± 8
308.15 K | 1129.6 ± 0.8 | 1246.7 ± 1.5 | 1359.9 ± 2.3 | 1463.5 ± 3.3 | 1628.8 ± 5.3 | 1771.4 ± 7.5 | 1792.8 ± 7.9

O=[N+]([O-])[O-].O=[N+]([O-])[O-].O=[N+]([O-])[O-].[Y+3] [yttrium nitrate] + O
mass density [kg/m3]
Conditions | m1 = 0.4989 | m1 = 0.9965 | m1 = 1.497 | m1 = 1.982 | m1 = 2.947 | m1 = 3.945 | m1 = 4.957
293.15 K | 1105.5 ± 0.6 | 1202.6 ± 1.2 | 1290.8 ± 1.8 | 1368.7 ± 2.5 | 1502.8 ± 3.9 | 1615.7 ± 5.4 | 1708.9 ± 7
298.15 K | 1103.5 ± 0.6 | 1200.2 ± 1.2 | 1287.8 ± 1.8 | 1365.4 ± 2.4 | 1498.9 ± 3.9 | 1611.4 ± 5.4 | 1704.3 ± 6.9
308.15 K | 1099.2 ± 0.6 | 1194.7 ± 1.2 | 1281.4 ± 1.8 | 1358.2 ± 2.4 | 1490.5 ± 3.8 | 1602.2 ± 5.4 | 1694.7 ± 6.9
